Reference: US10882882B2, “Post fermented tea-derived kaempferol-based compound” (AMOREPACIFIC CORPORATION, priority 2016, dated 2021)

Target: T1, beta amyloid (Aβ1-42) (Homo sapiens, UniProt P05067)
T1 construct: beta amyloid (Aβ1-42, AnaSpec Inc, USA); purchased AnaSpec Inc, USA
Test: Inhibition of beta amyloid aggregation, fluorescence analysis (ThioflavinT assay)
Assay type: biochemical
Conditions: for Increased RFU (% of Pos. Cont.): Pos. Cont. (beta amyloid only) = 100; for inhibition of beta amyloid aggregation as compared with the positive control group: positive control (only beta amyloid, no compound) taken as 100%
Experimental: The effect of kaempferol3-O-[2-O″-(E)-p-coumaroyl][beta-D-glucopyranosyl-(1→3)-O-alpha-L-rhamnopyranosyl-(1→6)-O-beta-D-glucopyranoside] on inhibition of beta amyloid aggregation was confirmed by the fluorescence analysis (ThioflavinT assay). Specifically, beta amyloid (Aβ1-42, AnaSpec Inc, USA) was obtained and used at a concentration of 0.1 mg/ml and stored at −80° C. before use. Morin (20 μM), phenol red (20 μM), and kaempferol3-O-[2-O″-(E)-p-coumaroyl][beta-D-glucopyranosyl-(1→3)-O-alpha-L-rhamnopyranosyl-(1→6)-O-beta-D-glucopyranoside] (1 mg/ml) were respectively diluted with DMSO so as to be adjusted to the concentrations. In order to specify the degree of inhibition of Aβ1-42 aggregation, each of the compounds prepared at the above concentrations was diluted with 50 μL of 0.01 M sodium phosphate buffer solution to have a concentration of 10 μM, then 40 μL of 0.1 mg/ml of Aβ1-42 was added thereto, and then 10 μl of 2 mM thioflavinT was added thereto, and fluorescence was measured using a fluorescence spectrometer (RF-5300PC, SHIMADZU CORPORATION, Japan) at 37° C. for 150 minutes at intervals of 5 minutes. In the above table, “RFU” denotes the relative fluorescence unit, and “Increased RFU” denotes the amount of aggregated beta amyloid, and “Increased RFU (% of Pos.Cont.)” denotes the percentage value of the amount of aggregated beta amyloid with respect to that of the positive control group. “Novel substance 33” denotes kaempferol3-O-[2-O″-(E)-p-coumaroyl][beta-D-glucopyranosyl-(1→3)-O-alpha-L-rhamnopyranosyl-(1→6)-O-beta-D-glucopyranoside].

[1] = compound 10 μM, Aβ1-42 0.1 mg/ml, 37° C., 150 minutes

T1 sequence (P05067 672-713 limits assumed): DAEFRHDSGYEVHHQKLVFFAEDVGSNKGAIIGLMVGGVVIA

SMILES | Increased RFU (% of Pos. Cont.) [1] | Increased RFU (amount of aggregated beta amyloid) (compound 10 μM, Aβ1-42 0.1 mg/ml, thioflavinT, 37° C., 150 minutes) | inhibition of beta amyloid aggregation as compared with the positive control group
O=c1c(O)c(-c2ccc(O)cc2O)oc2cc(O)cc(O)c12 [Morin] | 78.6% | 11471 RFU | 21.4%
O=S1(=O)OC(c2ccc(O)cc2)(c2ccc(O)cc2)c2ccccc21 [Phenol Red] | 93.6% |  | 6.4%
